Results reported in the supplement of paper PMC10307832.

What was measured:
Assay in all cases: relative viability (nuclei count vs DMSO), 5 days (fraction); higher = more cells survive
[1] = compound: O=C(Nc1cccc(C(F)(F)F)c1)Nc1cc(S(=O)(=O)NC2CC2)ccc1-c1ccsc1 [AGI-6780] + Nc1ncn([C@H]2C[C@H](O)[C@@H](CO)O2)c(=O)n1 [Decitabine] (partner 2 µM)
Procedure, shortened: (§1)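 Dosing by pin tool came one day after lung cancer cell lines were seeded in 1536-well plates, using either one drug or a fixed anchor-drug dose plus five library-drug doses (not always all listed) in √10 steps. After 5 days, nuclei were counted on 4× images. Relative viability is treated-well nuclei count divided by vehicle-well nuclei count, and values are medians of duplicate plates.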

[2] = compound: O=C(Nc1cccc(C(F)(F)F)c1)Nc1cc(S(=O)(=O)NC2CC2)ccc1-c1ccsc1 [AGI-6780] + CC1(C)CCC(c2ccc(Cl)cc2)=C(CN2CCN(c3ccc(C(=O)NS(=O)(=O)c4ccc(N[C@H](CCN5CCOCC5)CSc5ccccc5)c(S(=O)(=O)C(F)(F)F)c4)cc3)CC2)C1 [Navitoclax] (partner 0.5 µM)
Procedure, shortened: as §1

[3] = compound: O=C(Nc1cccc(C(F)(F)F)c1)Nc1cc(S(=O)(=O)NC2CC2)ccc1-c1ccsc1 [AGI-6780] + N=C(N)NC(=N)NCCc1ccccc1 [Phenformin] (partner 250 µM)
Procedure, shortened: as §1

[4] = compound: O=C(Nc1cccc(C(F)(F)F)c1)Nc1cc(S(=O)(=O)NC2CC2)ccc1-c1ccsc1 [AGI-6780] + C[C@@H](Oc1cc(-c2cnn(C3CCNCC3)c2)cnc1N)c1c(Cl)ccc(F)c1Cl [Crizotinib] (partner 1 µM)
Procedure, shortened: as §1

Cell Line	relative viability ([1]; first compound 0.08 µM)	relative viability ([1]; first compound 0.253 µM)	relative viability ([1]; first compound 0.8 µM)	relative viability ([1]; first compound 2.53 µM)	relative viability ([1]; first compound 8 µM)	relative viability ([2]; first compound 0.08 µM)	relative viability ([2]; first compound 0.253 µM)	relative viability ([2]; first compound 0.8 µM)	relative viability ([2]; first compound 2.53 µM)	relative viability ([2]; first compound 8 µM)	relative viability ([3]; first compound 0.08 µM)	relative viability ([3]; first compound 0.253 µM)	relative viability ([3]; first compound 0.8 µM)	relative viability ([3]; first compound 2.53 µM)	relative viability ([3]; first compound 8 µM)	relative viability ([4]; first compound 0.08 µM)	relative viability ([4]; first compound 0.253 µM)	relative viability ([4]; first compound 0.8 µM)	relative viability ([4]; first compound 2.53 µM)	relative viability ([4]; first compound 8 µM)
201T	0.88	0.841	0.861	0.87	0.878	1.26	1.19	1.24	1.18	1.26	0.495	0.41	0.486	0.427	0.492	1.04	1.04	1.01	1.03	1.05
A549	0.329	0.211	0.275	0.292	0.322	1.31	1.27	1.37	1.13	1.23	0.153	0.177	0.25	0.133	0.175	0.763	0.765	0.855	0.625	0.836
A-427		0.538	0.573	0.508	0.527	0.942	0.922	1	0.81	0.942	0.326	0.294	0.359	0.315	0.338	1.02	0.897	1.06	0.693	0.901
ABC-1		1.42	0.87	1.05	0.924						0.218	0.263	0.238	0.263	0.197	1.1	1.17	1.69	1.2	0.978
BEN	0.662	0.757	0.722		0.836	0.0592	0.0703	0.0549		0.0845	0.25	0.281	0.289	0.288	0.28	0.891	0.738	0.955		0.966
CAL-12T						1.2	1.17	1.38	1.53	1.25	0.61	0.579	0.626	0.632	0.566	0.686	0.681	0.61	0.87	0.716
COR-L23	0.449	0.455	0.477	0.399	0.416	1.01	0.961	0.985	1.02	1.11	0.457	0.489	0.424	0.408	0.506	0.678	0.622	0.564	0.754	0.617
COR-L 105	0.602	0.89	0.649	0.655	0.713	0.918	0.62	0.841	0.862	0.763	0.407	0.461	0.507	0.524	0.539	0.899	0.738	1.01	0.708	0.848
Calu-6						0.948	0.815	0.846	0.833	0.891						0.822	0.829	0.948	0.824	0.752
ChaGo-K-1	0.507	0.534	0.512	0.455	0.425	0.894	1.25	1.15	0.746	0.992	0.494	0.562	0.503	0.452	0.543	1.18	1.06	1.43	0.959	1.14
EKVX	0.347	0.343	0.363	0.324	0.432	1.02	0.879	0.935	0.717	0.978	0.23	0.245	0.252	0.25	0.251	0.904	0.813	1.15	0.888	1.07
EMC-BAC-2		1.01	0.927	0.855	1.04	1.19	1.14	1.23	1.14	1.17	0.57	0.602	0.508	0.456	0.531	0.791	0.728	0.763	0.668	0.78
EPLC-272H	0.405	0.348	0.359	0.372	0.374	1.17	1.37	1.02	0.918	1.08		0.341	0.243	0.28	0.274	0.888	0.929	0.841	0.714	0.791
H3255	0.54	0.612	0.719		0.542	0.395	0.537	0.688	0.292	0.516	0.39	0.381	0.384	0.358	0.385	0.884	0.848	0.997	0.84	0.921
HARA	0.481	0.446	0.513	0.402	0.61	1.2	1.15	1.09	1.19	1.19	0.402	0.483	0.436	0.324	0.399	1.05	1.08	0.894	1.01	1.07
HCC-15	0.677	0.756	0.666	0.546	0.697	0.727	0.698	0.743	0.641	0.684	0.551	0.525	0.505	0.428	0.47	0.831	0.833	0.834	0.813	0.825
HCC-44	0.926	0.977	0.997	0.94	0.968	0.969	1.02	0.94	0.856	1.11	0.182	0.202	0.354	0.175	0.257	0.769	0.811	0.82	0.855	0.821
HCC-78	0.604	0.695	0.708	0.661	0.688	0.845	0.789	0.9	0.779	0.801		0.735	0.814	0.716	0.607	0.378	0.337	0.422	0.353	0.343
HCC-366	0.341	0.304	0.39	0.308	0.355	1.03	1.12	0.984	0.944	1.05	0.615	0.667	0.589	0.321	0.682	0.606	0.56	0.445	0.335	0.374
HCC-827	0.331	0.314	0.39	0.29	0.336	1.09	1.06	1	1.01	0.935	0.423	0.39	0.413	0.395	0.376	0.965	0.9	0.861	0.981	0.943

Cell Line	relative viability ([1]; first compound 0.08 µM)	relative viability ([1]; first compound 0.253 µM)	relative viability ([1]; first compound 0.8 µM)	relative viability ([1]; first compound 2.53 µM)	relative viability ([1]; first compound 8 µM)	relative viability ([2]; first compound 0.08 µM)	relative viability ([2]; first compound 0.253 µM)	relative viability ([2]; first compound 0.8 µM)	relative viability ([2]; first compound 2.53 µM)	relative viability ([2]; first compound 8 µM)	relative viability ([3]; first compound 0.08 µM)	relative viability ([3]; first compound 0.253 µM)	relative viability ([3]; first compound 0.8 µM)	relative viability ([3]; first compound 2.53 µM)	relative viability ([3]; first compound 8 µM)	relative viability ([4]; first compound 0.08 µM)	relative viability ([4]; first compound 0.253 µM)	relative viability ([4]; first compound 0.8 µM)	relative viability ([4]; first compound 2.53 µM)	relative viability ([4]; first compound 8 µM)
HOP-62	0.199	0.264	0.235	0.25	0.218	0.974	1.01	1.13	1.11	1.19	0.684	0.663	0.876	0.689	0.763	0.857	0.919	0.971	0.731	0.502
IA-LM						0.761	0.768	0.908	0.787	0.959						1.12	0.76	1.09	0.827	0.876
LC-2-ad	0.835	0.804	0.791	0.868	0.793	0.552	0.468	0.505	0.249	0.659	0.623	0.59	0.605	0.54	0.505	0.579	0.491	0.467	0.412	0.508
LCLC-97TM1	0.221	0.219	0.304	0.19	0.231	0.503	0.702	0.642		0.431	0.402	0.409	0.419	0.439	0.436	0.417	0.48	0.668		0.344
LCLC-103H	0.768	0.824	0.714	0.726	0.753						0.311	0.305	0.338	0.33	0.375	1.08	1.12	1	1.03	1.01
LK-2	0.282	0.402	0.322		0.477	0.891	0.844	1.01		1.11	0.598	0.556	0.648		0.495	0.262	0.209	0.271		0.211
LOU-NH91	0.834	0.811	0.803	0.826	0.802	0.718	0.735	0.698	0.575	0.775	0.707	0.659	0.774	0.677	0.698	0.753	0.764	0.712	0.705	0.715
NCI-H358	0.219	0.242	0.208	0.184	0.194						0.363	0.317	0.438	0.35	0.394	0.76	0.566	0.573	0.528	0.471
NCI-H522	0.612	0.583	0.722		0.588						0.706	0.659	0.633	0.616	0.627					
NCI-H650	0.288	0.296	0.377	0.33	0.296						0.447	0.502	0.451	0.435	0.438	0.833	0.673	0.737	0.601	0.641
NCI-H661	0.589	0.567	0.612	0.502	0.558						0.284	0.344	0.27	0.261	0.252	1.02	0.921	1.22	0.996	1.08
NCI-H1299						1.02	1.06	0.97	1.06	1.02						0.995	0.956	1.01	0.945	0.941
NCI-H1395	0.738	0.789	0.747	0.676	0.742	1.25	1.17	1.2		1.23	0.469	0.46	0.45	0.397	0.449					
NCI-H1563											0.671	0.666	0.66	0.643	0.672	0.943	0.827	0.828	0.858	0.903
NCI-H1648	0.551	0.418	0.506	0.459	0.627															
NCI-H1703						1.49	1.21	1.25	1.1	1.25						0.906	0.612	1.11	0.665	0.824
NCI-H1793	0.519	0.539	0.415	0.342	0.549	0.977	0.365	0.455	0.386	0.519	0.458	0.406	0.386	0.264	0.365					
NCI-H2228						0.753	1.04	0.675	0.856	1.08	0.341	0.278	0.31	0.347	0.393	0.492	0.584	0.453	0.368	0.512
NCI-H2342	0.727	0.733	0.732	0.65	0.99						0.572	0.759	0.636	0.53	0.793					
SW 900	0.454	0.454	0.386	0.413	0.445						0.547	0.737	0.673	0.597	0.809					
